Measured values as given in ChEMBL document CHEMBL1201862, “PubChem BioAssay data set” (2004).
Calls of active or inactive are those of the source.

Key:
[1] = Late stage counterscreen results from the probe development effort to identify activators of signal transducer and activator of transcription 1 (STAT1): luminescence-based cell-based dose response assay to identify cytotoxic compounds.; format: functional
Aminopeptidase N = molecular target: T1, Aminopeptidase N (Plasmodium falciparum FcB1/Columbia, UniProt O96935); assay: P. falciparum M1AAP inhibitors, biochemical, fluorogenic H-Leu-NHMec substrate, 1536-well (AID 1445); parameters: species or system Plasmodium falciparum 3D7, 3D7
T1 sequence (O96935 whole entry): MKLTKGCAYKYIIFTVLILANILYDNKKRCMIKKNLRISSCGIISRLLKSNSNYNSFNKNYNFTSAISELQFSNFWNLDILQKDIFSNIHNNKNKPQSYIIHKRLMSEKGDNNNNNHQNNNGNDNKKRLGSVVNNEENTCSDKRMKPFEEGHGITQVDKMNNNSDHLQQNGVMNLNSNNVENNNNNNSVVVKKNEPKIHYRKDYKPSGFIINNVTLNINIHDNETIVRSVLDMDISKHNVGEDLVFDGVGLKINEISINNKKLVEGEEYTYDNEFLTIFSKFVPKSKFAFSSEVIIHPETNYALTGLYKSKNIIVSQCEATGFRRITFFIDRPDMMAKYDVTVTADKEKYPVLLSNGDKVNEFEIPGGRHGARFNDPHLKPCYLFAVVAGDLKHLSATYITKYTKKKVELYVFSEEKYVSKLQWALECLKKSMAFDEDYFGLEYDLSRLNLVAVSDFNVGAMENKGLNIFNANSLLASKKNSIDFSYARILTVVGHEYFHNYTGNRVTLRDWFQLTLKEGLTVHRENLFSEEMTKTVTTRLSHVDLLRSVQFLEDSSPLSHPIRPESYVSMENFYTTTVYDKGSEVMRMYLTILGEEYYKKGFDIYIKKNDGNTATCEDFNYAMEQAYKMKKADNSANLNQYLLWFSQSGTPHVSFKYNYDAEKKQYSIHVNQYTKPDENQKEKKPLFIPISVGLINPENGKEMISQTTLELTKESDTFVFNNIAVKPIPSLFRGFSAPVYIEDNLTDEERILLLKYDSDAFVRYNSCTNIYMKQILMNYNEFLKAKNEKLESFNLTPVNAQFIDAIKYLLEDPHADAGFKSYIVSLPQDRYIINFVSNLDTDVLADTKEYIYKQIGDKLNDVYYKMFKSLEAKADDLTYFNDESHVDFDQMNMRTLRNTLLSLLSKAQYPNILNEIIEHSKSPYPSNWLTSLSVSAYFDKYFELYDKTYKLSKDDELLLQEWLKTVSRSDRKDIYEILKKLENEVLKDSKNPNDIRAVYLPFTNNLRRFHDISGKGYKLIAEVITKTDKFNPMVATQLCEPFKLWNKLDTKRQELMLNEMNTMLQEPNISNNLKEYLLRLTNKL

[2] = molecular target: T2, RNA-binding protein pos-1 (Caenorhabditis elegans, UniProt G5EF15); assay: inhibitors of POS-1/mex-3 RNA binding, dose response, biochemical, fluorescence polarization (AID 1964);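 further: purified POS-1 fused to maltose binding protein made in E. coli; potency of compounds blocking POS-1 binding to fluorescent RNA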
T2 sequence (G5EF15 whole entry): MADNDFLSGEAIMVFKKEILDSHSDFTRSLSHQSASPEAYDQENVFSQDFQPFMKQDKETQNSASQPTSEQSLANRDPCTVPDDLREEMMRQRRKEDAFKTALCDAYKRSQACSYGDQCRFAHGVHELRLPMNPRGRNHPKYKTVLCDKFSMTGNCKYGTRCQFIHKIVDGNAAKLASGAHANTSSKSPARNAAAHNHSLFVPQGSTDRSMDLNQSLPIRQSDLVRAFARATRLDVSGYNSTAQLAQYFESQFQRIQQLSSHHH

[3] = molecular target: T3, Zinc finger protein mex-5 (Caenorhabditis elegans, UniProt Q9XUB2); assay: MEX-5/TCR-2 RNA interaction inhibitors, dose response, biochemical, C. elegans, fluorescence polarization (AID 1960)
T3 sequence (Q9XUB2 whole entry): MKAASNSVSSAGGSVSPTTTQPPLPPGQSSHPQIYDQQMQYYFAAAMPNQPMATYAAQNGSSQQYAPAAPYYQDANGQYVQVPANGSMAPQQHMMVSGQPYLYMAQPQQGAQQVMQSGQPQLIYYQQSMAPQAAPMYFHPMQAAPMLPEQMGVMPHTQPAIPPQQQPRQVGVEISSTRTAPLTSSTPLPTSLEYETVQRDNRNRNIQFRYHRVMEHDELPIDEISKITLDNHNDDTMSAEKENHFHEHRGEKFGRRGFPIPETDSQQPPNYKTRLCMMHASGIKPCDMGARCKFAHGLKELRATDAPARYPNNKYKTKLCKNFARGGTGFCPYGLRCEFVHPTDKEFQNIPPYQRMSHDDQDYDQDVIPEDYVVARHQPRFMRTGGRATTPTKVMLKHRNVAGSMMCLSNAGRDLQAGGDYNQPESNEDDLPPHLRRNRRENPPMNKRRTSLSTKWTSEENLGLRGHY

Ephrin type-A receptor 4 = Ephrin type-A receptor 4 (Mus musculus, UniProt Q03137); assay: inhibitors of EphA4 binding to KYL peptide, primary screen, biochemical, colorimetric, mouse EphA4 (AID 689); format: functional
[4] = molecular target: Induced myeloid leukemia cell differentiation protein Mcl-1 (Homo sapiens, UniProt Q07820); format: functional
[5] = molecular target: Eukaryotic translation initiation factor 4E (Mus musculus, UniProt P63073); assay: eIF4E–eIF4G protein interaction inhibitors, dose response, biochemical, TR-FRET (AID 855); format: functional;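 further: potency for disrupting eIF4E binding to eIF4GI seen as loss of FRET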
[6] = molecular target: Sphingosine 1-phosphate receptor 2 (Homo sapiens, UniProt O95136); assay: Dose Response Cell Based Assay for Antagonists of the S1P2 Receptor. [Related pubchem assays: 856, 736 ]; format: functional
[7] = cytotoxicity in HPDE-C7 cells, cell-based, fluorescence, HTS (AID 430); format: functional; conditions: Homo sapiens
[8] = inhibitors of intracellular T. cruzi replication, confirmation, NIH3T3 host cells, beta-gal luminescence (AID 2044); format: functional, cell-based;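 further: intracellular parasites grown in NIH/3T3 mouse fibroblasts as host cells; luminescent beta-galactosidase reporter signal from transgenic T. cruzi replicating inside host cells; inhibitors lower the luminescence signal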
[9] = cytotoxicity in KRAS-transformed pancreatic duct cells, primary screen, cell-based, fluorescence, HTS (AID 431); format: functional; conditions: Homo sapiens;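 further: cell line used: HPDE-C7K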
[10] = growth suppression of PTEN-null colon cells, dose response, cell-based, HCT116 PTEN knockout (AID 1047); format: functional;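 further: HCT116 colon tumor cells with PTEN knocked out; cells exposed to compound for 60 hours before readout; potency for loss of cell viability measured by luminescence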
[11] = cytotoxicity toward NIH3T3 fibroblasts, dose response, counter-screen, cell-based, ATP luminescence, mouse fibroblasts (AID 2010); format: functional;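 further: cells exposed to compound for about 90 hours before reading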
[12] = growth suppression of beta-catenin-knockout colon cells, dose response, cell-based, HCT116, human colon tumor (AID 1045); format: functional;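 further: HCT116 colon tumor cells with beta catenin knocked out; cells exposed to compound for 60 hours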
[13] = THP-1 cell cytotoxicity, dose response, cytotoxicity control for non-replicating M. tuberculosis project (AID 489025); format: functional
[14] = Vero E6 cell cytotoxicity, dose response, cytotoxicity control for non-replicating M. tuberculosis project, secondary assay (AID 492998); format: functional, VeroE6; conditions: Vero C1008
[15] = cytotoxicity in HEK-293T cells, dose response, cytotoxicity control for TCR NF-kB inhibitor project, luminescence, T-cell screen hits (AID 489026); format: functional, cell-based;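 further: cells exposed to compound about 14 hours before the viability readout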
cells = format: functional
[16] = Shn3 3'UTR reporter inhibitors, dose response, cell-based, Clone20 osteoblasts, firefly luciferase, cherry-picked (AID 624132); format: functional;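 further: firefly luciferase luminescence from reporter carrying the Shn3 3'UTR in osteoblasts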
[17] = HepG2 cell cytotoxicity, dose response, cytotoxicity control for Shn3 inhibitor project, CellTiter-Glo, cherry-picked (AID 624134); format: functional, cell-based
[18] = control 3'UTR Renilla luciferase suppression, dose response, counter-screen for Shn3 inhibitor project, cell-based, Clone20-Shn3RL, cherry-picked (AID 624133); format: functional
[19] = molecular target: Voltage-gated inwardly rectifying potassium channel KCNH2 (Homo sapiens, UniProt Q12809); assay: hERG protection from proarrhythmic block, potency, dose response, cell-based, thallium flux (AID 2121); format: ADME
Cysteine protease ATG4B = Cysteine protease ATG4B (Homo sapiens, UniProt Q9Y4P1); format: functional;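 further: Fluorescence-based dose-response confirmation assay measuring inhibition of ATG4B activity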
Phospholipase A2 = Phospholipase A2 (Homo sapiens, UniProt P04054); format: functional;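 further: confirmatory dose-response counterscreen on phospholipase A2, testing hits that came from an ultra-high-throughput screen for ATG4B inhibitors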
Vero [20] = assay: cells; format: functional, cell-based; conditions: Chlorocebus sabaeus
Vero [21] = assay: cells; format: functional; conditions: Chlorocebus sabaeus
[22] = molecular target: Peroxisome proliferator-activated receptor gamma/Nuclear receptor corepressor 2 (Homo sapiens, UniProt P37231+Q9Y618); assay: Counterscreen for NR2E3 inverse agonists: TR-FRET-based biochemical high throughput dose response assay to identify inverse agonists of the interaction between peroxisome proliferator-activated receptor gamma (PPARg) and nuclear receptor co-repressor 2 (NCOR2).; format: functional
[23] = molecular target: Photoreceptor-specific nuclear receptor (Homo sapiens, UniProt Q9Y5X4); assay: NR2E3 inverse agonists, dose response, biochemical, TR-FRET (AID 463256); format: functional
Sequence of Photoreceptor-specific nuclear receptor (Q9Y5X4 whole entry): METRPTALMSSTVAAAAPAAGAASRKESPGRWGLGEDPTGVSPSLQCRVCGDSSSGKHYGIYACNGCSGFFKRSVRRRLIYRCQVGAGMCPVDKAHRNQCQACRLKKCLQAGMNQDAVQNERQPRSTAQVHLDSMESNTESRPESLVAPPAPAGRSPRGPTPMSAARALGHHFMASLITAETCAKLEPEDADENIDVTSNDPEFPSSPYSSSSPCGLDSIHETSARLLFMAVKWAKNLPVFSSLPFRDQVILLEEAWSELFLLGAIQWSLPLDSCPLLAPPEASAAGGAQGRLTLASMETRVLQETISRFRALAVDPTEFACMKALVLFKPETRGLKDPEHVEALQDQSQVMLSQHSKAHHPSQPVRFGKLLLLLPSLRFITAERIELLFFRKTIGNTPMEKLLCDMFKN

Sequence of Phospholipase A2 (P04054 whole entry): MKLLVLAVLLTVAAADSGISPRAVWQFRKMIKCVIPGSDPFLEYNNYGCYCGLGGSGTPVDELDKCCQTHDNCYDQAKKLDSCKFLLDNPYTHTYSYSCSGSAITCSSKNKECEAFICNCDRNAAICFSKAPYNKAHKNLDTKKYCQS
Sequence of Peroxisome proliferator-activated receptor gamma/Nuclear receptor corepressor 2 (P37231 whole entry): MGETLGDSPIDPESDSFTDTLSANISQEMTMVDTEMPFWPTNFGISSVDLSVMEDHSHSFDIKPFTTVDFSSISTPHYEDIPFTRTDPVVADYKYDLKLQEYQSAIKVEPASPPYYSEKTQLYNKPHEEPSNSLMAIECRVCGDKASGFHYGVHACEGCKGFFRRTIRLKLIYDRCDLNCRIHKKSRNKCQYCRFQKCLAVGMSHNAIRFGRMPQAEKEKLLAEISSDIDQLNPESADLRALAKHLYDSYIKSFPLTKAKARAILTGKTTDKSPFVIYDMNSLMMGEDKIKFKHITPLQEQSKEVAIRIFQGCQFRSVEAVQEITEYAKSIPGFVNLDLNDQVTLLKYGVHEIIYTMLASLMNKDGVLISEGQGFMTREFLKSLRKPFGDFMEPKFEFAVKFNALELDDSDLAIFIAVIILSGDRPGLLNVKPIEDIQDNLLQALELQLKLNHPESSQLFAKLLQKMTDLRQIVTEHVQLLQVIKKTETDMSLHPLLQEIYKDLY
Sequence of Peroxisome proliferator-activated receptor gamma/Nuclear receptor corepressor 2 (Q9Y618 whole entry): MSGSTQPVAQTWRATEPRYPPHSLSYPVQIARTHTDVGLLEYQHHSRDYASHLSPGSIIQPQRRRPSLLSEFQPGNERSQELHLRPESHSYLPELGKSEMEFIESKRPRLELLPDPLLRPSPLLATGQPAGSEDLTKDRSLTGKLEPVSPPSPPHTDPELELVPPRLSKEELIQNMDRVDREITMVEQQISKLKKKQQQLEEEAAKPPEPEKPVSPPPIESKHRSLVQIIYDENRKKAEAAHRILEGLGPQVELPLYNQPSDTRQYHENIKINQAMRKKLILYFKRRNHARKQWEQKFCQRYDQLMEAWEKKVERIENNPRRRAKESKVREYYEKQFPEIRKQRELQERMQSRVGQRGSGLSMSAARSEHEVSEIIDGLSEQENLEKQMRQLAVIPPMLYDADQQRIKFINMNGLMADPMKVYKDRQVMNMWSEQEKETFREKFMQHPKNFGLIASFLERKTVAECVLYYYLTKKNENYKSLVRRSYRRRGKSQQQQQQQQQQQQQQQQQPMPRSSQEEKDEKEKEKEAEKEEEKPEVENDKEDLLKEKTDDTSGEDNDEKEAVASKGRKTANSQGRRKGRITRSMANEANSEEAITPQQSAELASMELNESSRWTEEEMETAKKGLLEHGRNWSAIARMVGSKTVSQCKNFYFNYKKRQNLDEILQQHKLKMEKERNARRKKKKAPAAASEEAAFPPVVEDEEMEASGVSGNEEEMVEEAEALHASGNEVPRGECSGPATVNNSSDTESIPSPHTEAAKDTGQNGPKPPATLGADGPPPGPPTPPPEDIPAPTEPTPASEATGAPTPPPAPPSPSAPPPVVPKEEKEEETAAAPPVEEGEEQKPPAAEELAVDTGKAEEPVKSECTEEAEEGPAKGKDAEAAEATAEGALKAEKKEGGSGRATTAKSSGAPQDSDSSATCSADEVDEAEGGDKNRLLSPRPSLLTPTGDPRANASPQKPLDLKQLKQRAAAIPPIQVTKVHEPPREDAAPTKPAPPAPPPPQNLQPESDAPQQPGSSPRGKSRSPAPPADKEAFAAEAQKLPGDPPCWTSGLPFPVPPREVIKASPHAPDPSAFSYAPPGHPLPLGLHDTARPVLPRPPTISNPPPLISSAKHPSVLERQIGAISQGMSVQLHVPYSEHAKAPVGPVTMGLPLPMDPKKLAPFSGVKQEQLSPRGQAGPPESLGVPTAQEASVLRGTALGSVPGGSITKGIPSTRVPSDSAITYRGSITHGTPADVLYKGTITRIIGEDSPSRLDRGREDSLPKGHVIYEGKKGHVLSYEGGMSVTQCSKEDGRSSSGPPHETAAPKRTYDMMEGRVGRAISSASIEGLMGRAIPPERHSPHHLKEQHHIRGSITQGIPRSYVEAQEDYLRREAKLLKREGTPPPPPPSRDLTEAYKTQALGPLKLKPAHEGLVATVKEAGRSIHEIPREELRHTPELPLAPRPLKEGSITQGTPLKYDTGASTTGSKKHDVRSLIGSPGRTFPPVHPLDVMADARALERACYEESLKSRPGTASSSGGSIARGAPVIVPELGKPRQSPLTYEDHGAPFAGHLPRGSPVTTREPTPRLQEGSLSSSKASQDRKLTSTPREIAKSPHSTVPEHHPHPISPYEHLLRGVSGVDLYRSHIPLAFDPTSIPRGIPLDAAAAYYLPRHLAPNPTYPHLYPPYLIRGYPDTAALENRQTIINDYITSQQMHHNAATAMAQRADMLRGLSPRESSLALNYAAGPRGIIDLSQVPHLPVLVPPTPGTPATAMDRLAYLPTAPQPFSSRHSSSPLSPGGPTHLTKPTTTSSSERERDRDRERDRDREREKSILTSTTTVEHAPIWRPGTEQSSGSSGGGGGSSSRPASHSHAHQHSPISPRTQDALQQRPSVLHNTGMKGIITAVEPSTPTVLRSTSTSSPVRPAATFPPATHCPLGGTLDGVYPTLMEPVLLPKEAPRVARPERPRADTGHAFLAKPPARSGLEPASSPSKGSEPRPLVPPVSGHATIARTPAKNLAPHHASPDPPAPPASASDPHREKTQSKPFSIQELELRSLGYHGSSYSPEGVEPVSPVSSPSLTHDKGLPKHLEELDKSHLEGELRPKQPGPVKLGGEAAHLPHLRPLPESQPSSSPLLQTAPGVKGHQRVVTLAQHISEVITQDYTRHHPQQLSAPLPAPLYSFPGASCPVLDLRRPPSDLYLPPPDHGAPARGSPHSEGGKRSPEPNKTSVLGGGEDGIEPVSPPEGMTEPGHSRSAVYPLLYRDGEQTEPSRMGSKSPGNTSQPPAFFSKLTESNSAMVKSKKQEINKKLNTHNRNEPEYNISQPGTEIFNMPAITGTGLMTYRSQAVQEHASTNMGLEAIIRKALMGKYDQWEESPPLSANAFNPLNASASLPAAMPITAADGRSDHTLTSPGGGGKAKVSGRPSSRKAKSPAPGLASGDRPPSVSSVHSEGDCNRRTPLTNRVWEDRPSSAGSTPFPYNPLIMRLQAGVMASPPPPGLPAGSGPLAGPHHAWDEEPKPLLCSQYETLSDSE
Sequence of Ephrin type-A receptor 4 (Q03137 whole entry): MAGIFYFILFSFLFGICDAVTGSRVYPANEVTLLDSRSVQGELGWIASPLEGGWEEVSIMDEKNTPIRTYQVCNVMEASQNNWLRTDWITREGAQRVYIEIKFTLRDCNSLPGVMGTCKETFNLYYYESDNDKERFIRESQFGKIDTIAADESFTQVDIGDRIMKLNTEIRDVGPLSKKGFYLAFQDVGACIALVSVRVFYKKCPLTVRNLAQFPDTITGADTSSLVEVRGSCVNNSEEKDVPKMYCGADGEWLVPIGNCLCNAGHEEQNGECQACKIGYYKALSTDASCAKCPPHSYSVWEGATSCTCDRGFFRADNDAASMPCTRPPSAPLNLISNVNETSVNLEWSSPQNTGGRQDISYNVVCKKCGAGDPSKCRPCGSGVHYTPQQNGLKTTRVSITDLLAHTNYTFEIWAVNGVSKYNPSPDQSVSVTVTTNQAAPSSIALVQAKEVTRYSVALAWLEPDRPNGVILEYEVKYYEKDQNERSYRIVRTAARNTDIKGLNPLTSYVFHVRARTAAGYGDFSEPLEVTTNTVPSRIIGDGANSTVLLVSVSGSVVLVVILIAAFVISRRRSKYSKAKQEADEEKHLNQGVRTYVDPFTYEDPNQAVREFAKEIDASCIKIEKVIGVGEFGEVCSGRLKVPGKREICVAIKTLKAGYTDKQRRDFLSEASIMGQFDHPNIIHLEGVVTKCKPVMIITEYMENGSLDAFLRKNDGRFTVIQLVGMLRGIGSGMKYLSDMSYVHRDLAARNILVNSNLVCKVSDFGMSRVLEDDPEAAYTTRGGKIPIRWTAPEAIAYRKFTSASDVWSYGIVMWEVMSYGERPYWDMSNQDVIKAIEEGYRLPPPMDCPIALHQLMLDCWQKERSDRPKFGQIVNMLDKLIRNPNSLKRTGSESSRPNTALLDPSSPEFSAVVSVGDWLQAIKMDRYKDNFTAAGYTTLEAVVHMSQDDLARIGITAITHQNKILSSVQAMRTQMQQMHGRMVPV
Sequence of Cysteine protease ATG4B (Q9Y4P1 whole entry): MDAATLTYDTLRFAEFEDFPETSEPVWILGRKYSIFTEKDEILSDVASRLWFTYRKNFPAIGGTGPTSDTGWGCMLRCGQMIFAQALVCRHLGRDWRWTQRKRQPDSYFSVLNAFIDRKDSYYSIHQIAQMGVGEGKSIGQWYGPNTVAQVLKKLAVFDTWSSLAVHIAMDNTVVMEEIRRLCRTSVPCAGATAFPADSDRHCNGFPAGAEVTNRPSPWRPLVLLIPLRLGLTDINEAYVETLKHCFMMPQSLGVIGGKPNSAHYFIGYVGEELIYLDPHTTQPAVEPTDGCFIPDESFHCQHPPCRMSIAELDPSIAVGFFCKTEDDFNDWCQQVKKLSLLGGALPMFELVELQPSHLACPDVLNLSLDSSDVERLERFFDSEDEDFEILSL

Question: For CCOC(=O)/C(C#N)=C/c1cc(C)n(-c2ccccc2)c1C, which IC50 [1] is on record?
Answer: > 55.7 µM (not active)

Question: With CCOC(=O)c1cc(-c2ccc(/C=C3/C(=O)NC(=O)C(C#N)=C3C)o2)ccc1Cl as the compound, how does the IC50 (Aminopeptidase N) read?
Answer: 80.1 µM (active)

Question: What about the EC50 [2] of the same compound?
Answer: 19.9 µM (active)

Question: What about the EC50 [3] of the same compound?
Answer: 17.4 µM (active)

Question: What about the IC50 (Ephrin type-A receptor 4) of the same compound?
Answer: 2.53 µM (active)

Question: What about the IC50 [4] of the same compound?
Answer: 0.752 µM (active)

Question: And the IC50 [5]?
Answer: 23.4 µM (active)

Question: Which IC50 [6] does the source give for O=S1(=O)C=C(Sc2nc3cc(Cl)ccc3o2)c2ccccc21 here?
Answer: 3.47 µM (active)

Question: And the EC50 [7]?
Answer: 4.03 µM (active)

Question: What about the EC50 [8] of the same compound?
Answer: 0.818 µM (active)

Question: And the EC50 [9]?
Answer: 9.45 µM (active)

Question: And the EC50 [10]?
Answer: 4.03 µM (active)

Question: And the EC50 [11]?
Answer: 1.58 µM (active)

Question: And the EC50 [12]?
Answer: 3.65 µM (active)

Question: What about the CC50 [13] of the same compound?
Answer: 8.54 µM (active)

Question: What about the CC50 [14] of the same compound?
Answer: 5.94 µM (active)

Question: And the IC50 [15]?
Answer: 54.3 µM (inactive)

Question: And the IC50 (cells)?
Answer: 1.57 µM (active)

Question: What about the AC50 [16] of the same compound?
Answer: < 0.26 µM (active)

Question: What about the AC50 [17] of the same compound?
Answer: 18.4 µM (active)

Question: And the AC50 [18]?
Answer: 4.15 µM (active)

Question: For Cc1ccc(C(=O)CC(=O)c2cc(Cl)ccc2O)cc1, which EC50 [19] is on record?
Answer: 3.02 µM (active)

Question: And the IC50 (Cysteine protease ATG4B)?
Answer: 11.1 µM (active)

Question: What about the IC50 (Phospholipase A2) of the same compound?
Answer: 8 µM (active)

Question: And the IC50 (Vero [20])?
Answer: 23.8 µM (active)

Question: What about the CC50 (Vero [21]) of the same compound?
Answer: 22.3 µM (active)

Question: For Cn1c(SCC(=O)c2ccc3c(c2)Cc2ccccc2-3)nnc1-c1ccccc1, which IC50 [22] is on record?
Answer: 4.12 µM (active)

Question: What about the IC50 [23] of the same compound?
Answer: 3.82 µM (active)
